Assay results from ChEMBL document CHEMBL1201862, “PubChem BioAssay data set” (2004).
The source made the active and inactive calls.

Columns and labels:
Protein Tat = target: T1, Protein Tat (Human immunodeficiency virus type 1 group M subtype B (isolate HXB2)(HIV-1), UniProt P04608); assay type: functional;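 note: tat binding to TAR RNA read out by fluorescence polarization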
T1 sequence (P04608 whole entry): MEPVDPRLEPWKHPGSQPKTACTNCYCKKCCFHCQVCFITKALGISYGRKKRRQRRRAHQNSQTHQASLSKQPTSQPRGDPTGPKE

[1] = target: Dual specificity protein phosphatase 3 (Homo sapiens, UniProt P51452); test: VHR phosphatase inhibition, dose response, selectivity assay for STEP inhibitor project, biochemical (AID 602374); assay type: functional; conditions: read-out: IC50_Mean
[2] = target: T2, Tyrosine-protein phosphatase non-receptor type 22 (Homo sapiens, UniProt Q9Y2R2); test: lymphoid phosphatase LYP inhibitors – biochemical, selectivity assay for STEP inhibitor project, dose response (AID 624241); assay type: functional
T2 sequence (Q9Y2R2 whole entry): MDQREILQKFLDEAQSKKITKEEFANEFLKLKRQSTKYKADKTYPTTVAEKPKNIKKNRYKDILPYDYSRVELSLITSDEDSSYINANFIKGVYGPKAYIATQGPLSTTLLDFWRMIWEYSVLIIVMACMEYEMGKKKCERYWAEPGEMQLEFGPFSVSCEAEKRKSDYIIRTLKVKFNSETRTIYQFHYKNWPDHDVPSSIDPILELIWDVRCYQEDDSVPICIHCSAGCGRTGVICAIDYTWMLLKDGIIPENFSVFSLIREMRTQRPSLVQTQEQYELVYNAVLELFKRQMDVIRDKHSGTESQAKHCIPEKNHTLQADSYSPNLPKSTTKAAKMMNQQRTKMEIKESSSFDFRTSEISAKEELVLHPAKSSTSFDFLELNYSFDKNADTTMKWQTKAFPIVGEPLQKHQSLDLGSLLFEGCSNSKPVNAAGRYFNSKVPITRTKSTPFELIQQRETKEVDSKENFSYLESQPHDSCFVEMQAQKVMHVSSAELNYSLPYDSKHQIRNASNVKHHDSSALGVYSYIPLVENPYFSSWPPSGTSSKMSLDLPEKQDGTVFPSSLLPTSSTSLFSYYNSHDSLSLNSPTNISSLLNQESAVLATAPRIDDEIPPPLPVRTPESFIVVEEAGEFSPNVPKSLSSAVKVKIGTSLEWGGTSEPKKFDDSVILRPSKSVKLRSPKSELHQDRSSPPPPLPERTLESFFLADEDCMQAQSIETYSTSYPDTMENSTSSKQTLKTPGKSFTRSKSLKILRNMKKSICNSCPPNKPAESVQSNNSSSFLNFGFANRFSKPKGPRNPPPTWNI

[3] = target: Lysine-specific demethylase 4C (Homo sapiens, UniProt Q9H3R0); test: inhibition of JMJD2C H3K9me3 demethylation – biochemical, DELFIA europium, cherry-picked samples, dose response (AID 488835); assay type: functional
[4] = target: Mitochondrial peptide methionine sulfoxide reductase (Bos taurus, UniProt P54149); test: Absorbance-based biochemical high throughput dose response assay for activators of Methionine sulfoxide reductase A (MsrA).; assay type: functional
[5] = target: Protein-tyrosine kinase 2-beta (Homo sapiens, UniProt Q14289);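 note: potency of inhibitors of PYK2 kinase phosphorylation of poly-GT substrate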
Cytochrome P450 2C19 = Cytochrome P450 2C19 (Homo sapiens, UniProt P33261); test: Cytochrome panel assay with activity outcomes. Panel member name: p450-cyp2c19 Compounds with AC50 equal or less than 10 uM are considered active; assay type: functional; conditions: read-out: AC50
[6] = target: Serine/threonine-protein phosphatase PP1-alpha catalytic subunit (Homo sapiens, UniProt P62136); test: inhibition of protein phosphatase 1 activity – biochemical, fluorescence, dose response (AID 2394)
ORF 73 = target: T3, ORF 73 (Human herpesvirus 8, UniProt O40947); test: KSHV LANA DNA-binding disruption – biochemical, fluorescence polarization, cherry-picked samples, dose response (AID 504725); parameters: species or system Human gammaherpesvirus 8;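 note: fluorescence polarization of a labeled DNA duplex reporting LANA DNA binding; potency is for inhibitors that block LANA binding to the DNA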
T3 sequence (O40947 whole entry): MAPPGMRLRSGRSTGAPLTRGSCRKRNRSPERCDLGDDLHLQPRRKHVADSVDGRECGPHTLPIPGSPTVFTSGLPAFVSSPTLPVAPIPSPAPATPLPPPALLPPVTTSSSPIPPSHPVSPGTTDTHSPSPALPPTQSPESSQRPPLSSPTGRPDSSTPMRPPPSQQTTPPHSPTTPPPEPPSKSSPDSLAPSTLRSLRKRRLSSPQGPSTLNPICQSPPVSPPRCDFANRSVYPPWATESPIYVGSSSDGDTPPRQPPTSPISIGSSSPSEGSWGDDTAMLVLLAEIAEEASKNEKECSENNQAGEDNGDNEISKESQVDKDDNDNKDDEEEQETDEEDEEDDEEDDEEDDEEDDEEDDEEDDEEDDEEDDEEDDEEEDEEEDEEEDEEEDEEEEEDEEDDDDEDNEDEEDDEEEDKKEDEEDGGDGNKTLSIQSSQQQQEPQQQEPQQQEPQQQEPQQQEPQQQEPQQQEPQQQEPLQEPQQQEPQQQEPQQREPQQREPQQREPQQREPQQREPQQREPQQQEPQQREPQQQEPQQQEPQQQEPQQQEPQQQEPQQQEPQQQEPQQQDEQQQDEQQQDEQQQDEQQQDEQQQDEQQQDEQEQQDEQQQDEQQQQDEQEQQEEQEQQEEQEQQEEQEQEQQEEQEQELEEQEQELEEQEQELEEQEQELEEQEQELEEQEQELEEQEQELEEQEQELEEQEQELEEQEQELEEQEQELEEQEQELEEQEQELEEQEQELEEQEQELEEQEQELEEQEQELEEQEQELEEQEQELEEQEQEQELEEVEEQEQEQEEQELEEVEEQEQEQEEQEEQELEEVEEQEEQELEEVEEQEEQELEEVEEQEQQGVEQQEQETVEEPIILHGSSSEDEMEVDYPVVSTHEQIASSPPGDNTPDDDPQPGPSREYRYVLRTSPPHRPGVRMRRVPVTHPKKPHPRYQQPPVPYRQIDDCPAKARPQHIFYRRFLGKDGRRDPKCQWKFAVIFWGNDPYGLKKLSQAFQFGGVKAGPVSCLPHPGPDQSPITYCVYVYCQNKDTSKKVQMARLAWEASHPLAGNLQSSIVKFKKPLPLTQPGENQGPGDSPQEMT

Genome polyprotein = Genome polyprotein (Hepatitis C virus, UniProt Q2Q167); test: disruption of hepatitis C core self-association – biochemical, TR-FRET, dose response (AID 2159); parameters: species or system Hepacivirus hominis;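 note: blocks dimerization of HCV core protein measured by TR-FRET between tagged core106 pairs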
[7] = target: Probable nicotinate-nucleotide adenylyltransferase (Staphylococcus aureus (strain N315), UniProt P65502); assay type: functional, Staphylococcus aureus subsp. aureus N315; conditions: read-out: IC50_Mean;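 note: confirmatory dose-response retesting of NadD inhibitor hits first found in an ultra-high-throughput screen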
Keap1/Nrf2 = Keap1/Nrf2 (Homo sapiens, UniProt Q14145); test: disruptors of Keap1 binding to Nrf2 peptide – biochemical, fluorescence polarization, cherry-picked samples, dose response (AID 588683)
[8] = target: Bifunctional protein GlmU (Mycobacterium tuberculosis, UniProt P9WMN3); test: Inhibitors of Mycobacterial Glucosamine-1-phosphate acetyl transferase (GlmU). Secondary screen.; parameters: species or system Mycobacterium tuberculosis H37Rv
[9] = NIH-3T3 fibroblast cytotoxicity, dose response, cytotoxicity control, cell-based, fluorescence, Alamar Blue, secondary assay (AID 2327); assay type: functional;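 note: NIH-3T3 mouse fibroblasts cultured with fluconazole at 8 µg/mL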

Sequence of Cytochrome P450 2C19 (P33261 whole entry): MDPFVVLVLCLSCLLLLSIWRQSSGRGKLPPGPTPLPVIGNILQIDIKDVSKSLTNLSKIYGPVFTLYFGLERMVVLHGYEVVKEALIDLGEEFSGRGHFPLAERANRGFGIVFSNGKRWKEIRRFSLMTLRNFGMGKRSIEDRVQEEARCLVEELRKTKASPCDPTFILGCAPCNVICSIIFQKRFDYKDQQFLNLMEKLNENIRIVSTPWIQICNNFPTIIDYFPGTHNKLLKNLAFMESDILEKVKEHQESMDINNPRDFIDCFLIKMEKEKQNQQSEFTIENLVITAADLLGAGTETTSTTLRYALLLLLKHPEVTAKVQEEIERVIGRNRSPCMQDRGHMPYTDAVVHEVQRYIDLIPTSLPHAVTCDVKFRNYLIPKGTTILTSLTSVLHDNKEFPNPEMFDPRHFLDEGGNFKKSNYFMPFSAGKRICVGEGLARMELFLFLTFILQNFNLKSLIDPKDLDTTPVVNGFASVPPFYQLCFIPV
Sequence of Keap1/Nrf2 (Q16236 whole entry): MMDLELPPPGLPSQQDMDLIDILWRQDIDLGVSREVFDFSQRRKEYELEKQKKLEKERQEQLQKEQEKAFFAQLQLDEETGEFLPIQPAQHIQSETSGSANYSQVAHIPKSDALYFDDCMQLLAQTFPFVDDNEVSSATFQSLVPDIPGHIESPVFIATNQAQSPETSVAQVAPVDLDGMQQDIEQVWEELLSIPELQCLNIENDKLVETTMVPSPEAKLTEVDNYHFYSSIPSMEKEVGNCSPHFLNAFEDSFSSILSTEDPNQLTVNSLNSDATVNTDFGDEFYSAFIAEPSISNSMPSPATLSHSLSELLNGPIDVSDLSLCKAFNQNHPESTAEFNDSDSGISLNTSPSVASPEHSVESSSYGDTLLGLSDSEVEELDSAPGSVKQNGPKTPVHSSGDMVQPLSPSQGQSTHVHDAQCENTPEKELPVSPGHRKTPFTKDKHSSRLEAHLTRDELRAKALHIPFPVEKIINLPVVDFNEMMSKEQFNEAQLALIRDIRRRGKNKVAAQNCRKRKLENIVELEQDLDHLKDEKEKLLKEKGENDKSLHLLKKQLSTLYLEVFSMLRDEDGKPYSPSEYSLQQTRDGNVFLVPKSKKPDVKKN
Sequence of Keap1/Nrf2 (Q14145 whole entry): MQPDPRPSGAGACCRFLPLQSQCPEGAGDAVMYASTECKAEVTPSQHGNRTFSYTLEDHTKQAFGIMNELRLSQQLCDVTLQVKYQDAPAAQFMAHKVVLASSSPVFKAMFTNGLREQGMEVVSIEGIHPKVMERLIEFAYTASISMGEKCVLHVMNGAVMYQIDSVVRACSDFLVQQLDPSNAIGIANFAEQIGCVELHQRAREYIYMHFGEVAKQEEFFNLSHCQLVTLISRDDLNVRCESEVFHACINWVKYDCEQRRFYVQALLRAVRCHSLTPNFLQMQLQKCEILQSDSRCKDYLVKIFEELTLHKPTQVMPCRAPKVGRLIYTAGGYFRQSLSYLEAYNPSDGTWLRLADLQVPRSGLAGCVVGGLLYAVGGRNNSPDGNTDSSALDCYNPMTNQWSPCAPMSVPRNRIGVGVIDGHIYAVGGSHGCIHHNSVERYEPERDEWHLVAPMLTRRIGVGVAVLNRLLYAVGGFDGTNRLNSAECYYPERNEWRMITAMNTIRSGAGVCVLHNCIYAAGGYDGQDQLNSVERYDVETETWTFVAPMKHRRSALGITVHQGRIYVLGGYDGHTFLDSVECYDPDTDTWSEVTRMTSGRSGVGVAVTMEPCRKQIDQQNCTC
Sequence of Genome polyprotein (Q2Q167 whole entry): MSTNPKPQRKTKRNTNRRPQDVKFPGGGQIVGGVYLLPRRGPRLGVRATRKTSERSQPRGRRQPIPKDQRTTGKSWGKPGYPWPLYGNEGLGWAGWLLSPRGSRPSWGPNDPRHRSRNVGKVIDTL
Sequence of Serine/threonine-protein phosphatase PP1-alpha catalytic subunit (P62136 whole entry): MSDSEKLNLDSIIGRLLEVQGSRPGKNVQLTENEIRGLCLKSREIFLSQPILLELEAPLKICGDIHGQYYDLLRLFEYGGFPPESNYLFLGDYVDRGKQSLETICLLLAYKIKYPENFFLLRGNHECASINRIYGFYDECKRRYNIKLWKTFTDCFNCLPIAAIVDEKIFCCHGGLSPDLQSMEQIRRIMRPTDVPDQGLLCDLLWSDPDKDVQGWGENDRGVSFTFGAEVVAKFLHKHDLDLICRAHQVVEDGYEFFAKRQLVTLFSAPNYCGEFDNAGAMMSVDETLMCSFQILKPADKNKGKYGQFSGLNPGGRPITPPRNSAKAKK
Sequence of Mitochondrial peptide methionine sulfoxide reductase (P54149 whole entry): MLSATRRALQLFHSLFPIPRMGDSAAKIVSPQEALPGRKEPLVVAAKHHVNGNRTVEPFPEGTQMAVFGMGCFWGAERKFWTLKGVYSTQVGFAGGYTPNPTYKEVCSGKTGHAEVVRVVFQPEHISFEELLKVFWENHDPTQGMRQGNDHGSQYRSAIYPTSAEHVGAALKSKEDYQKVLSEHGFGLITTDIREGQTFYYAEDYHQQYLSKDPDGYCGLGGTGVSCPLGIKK
Sequence of Protein-tyrosine kinase 2-beta (Q14289 whole entry): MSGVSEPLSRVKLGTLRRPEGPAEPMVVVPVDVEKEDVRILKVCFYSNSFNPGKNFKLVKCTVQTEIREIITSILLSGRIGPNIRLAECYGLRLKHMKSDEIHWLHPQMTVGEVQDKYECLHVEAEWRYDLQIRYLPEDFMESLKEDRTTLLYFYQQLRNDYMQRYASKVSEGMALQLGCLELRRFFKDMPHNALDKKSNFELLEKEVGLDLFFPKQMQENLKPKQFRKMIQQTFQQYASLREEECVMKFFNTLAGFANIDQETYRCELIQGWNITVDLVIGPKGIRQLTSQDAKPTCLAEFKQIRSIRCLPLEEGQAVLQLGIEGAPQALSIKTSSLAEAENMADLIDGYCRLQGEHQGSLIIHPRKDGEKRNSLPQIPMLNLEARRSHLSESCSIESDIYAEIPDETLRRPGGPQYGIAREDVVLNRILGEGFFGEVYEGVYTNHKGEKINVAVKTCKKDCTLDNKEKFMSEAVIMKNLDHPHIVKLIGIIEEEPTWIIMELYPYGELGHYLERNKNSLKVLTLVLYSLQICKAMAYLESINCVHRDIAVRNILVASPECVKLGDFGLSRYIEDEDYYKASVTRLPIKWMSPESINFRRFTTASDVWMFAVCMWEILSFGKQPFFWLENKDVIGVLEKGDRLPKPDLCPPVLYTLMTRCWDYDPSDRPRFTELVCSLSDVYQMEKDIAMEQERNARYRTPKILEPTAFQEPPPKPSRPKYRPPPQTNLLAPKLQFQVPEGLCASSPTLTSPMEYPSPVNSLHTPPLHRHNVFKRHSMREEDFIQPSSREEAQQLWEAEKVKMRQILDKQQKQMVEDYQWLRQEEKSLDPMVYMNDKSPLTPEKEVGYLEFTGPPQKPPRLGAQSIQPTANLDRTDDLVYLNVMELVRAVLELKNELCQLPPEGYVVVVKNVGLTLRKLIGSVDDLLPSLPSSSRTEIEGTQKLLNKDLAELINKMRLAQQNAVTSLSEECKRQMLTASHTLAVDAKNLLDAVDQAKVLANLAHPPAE
Sequence of Lysine-specific demethylase 4C (Q9H3R0 whole entry): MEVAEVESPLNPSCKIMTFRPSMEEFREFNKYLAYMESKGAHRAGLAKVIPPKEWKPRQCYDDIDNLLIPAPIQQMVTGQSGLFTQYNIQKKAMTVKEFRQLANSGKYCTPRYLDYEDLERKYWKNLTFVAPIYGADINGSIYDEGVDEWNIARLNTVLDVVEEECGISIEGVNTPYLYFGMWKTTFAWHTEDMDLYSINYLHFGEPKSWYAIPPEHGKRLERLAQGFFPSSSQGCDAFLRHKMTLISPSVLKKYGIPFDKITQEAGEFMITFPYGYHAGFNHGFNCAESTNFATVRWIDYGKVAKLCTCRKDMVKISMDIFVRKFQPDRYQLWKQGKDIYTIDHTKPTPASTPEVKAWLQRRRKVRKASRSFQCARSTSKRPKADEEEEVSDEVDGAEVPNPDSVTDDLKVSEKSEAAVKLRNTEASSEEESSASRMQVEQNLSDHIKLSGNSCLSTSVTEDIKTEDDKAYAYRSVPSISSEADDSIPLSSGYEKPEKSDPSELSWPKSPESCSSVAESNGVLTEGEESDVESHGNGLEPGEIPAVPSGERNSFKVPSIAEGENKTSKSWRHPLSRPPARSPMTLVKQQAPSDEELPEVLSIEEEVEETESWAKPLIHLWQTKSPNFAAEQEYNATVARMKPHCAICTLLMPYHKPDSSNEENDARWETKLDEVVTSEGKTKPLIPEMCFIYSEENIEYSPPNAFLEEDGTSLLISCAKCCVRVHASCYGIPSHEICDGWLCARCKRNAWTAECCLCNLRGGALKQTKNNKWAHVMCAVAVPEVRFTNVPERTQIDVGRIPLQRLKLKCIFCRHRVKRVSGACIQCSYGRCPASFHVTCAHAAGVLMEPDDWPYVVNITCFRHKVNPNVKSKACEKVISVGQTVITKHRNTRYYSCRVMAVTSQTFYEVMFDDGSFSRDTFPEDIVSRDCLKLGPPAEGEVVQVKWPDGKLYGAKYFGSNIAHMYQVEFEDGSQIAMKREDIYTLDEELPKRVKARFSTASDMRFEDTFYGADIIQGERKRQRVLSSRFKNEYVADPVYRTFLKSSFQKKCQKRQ
Sequence of Dual specificity protein phosphatase 3 (P51452 whole entry): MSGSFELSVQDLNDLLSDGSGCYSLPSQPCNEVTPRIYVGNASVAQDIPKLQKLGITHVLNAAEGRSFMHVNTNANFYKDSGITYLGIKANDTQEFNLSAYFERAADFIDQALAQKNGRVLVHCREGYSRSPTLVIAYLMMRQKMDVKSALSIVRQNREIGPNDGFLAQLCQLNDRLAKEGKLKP
Sequence of Probable nicotinate-nucleotide adenylyltransferase (P65502 whole entry): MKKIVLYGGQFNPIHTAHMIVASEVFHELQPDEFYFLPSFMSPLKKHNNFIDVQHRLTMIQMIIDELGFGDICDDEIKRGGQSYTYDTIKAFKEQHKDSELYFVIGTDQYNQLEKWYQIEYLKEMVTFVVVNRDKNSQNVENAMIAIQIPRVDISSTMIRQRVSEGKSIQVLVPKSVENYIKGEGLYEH

SMILES: COc1cc(NCCCNC(C)C)c2nccc(C)c2c1
- IC50 (Protein Tat): > 100 µM (active)

SMILES: CSc1ccc(C=NNc2ccc(S(=O)(=O)Nc3ccccc3C(=O)O)cc2[N+](=O)[O-])cc1
- IC50 [1]: 1.27 µM (active)
- IC50 [2]: 2.82 µM (active)
- AC50 [3]: 5.43 µM (active)

SMILES: Cc1oc2c(c1C(=O)c1ccccc1)C(=O)C(=O)c1ccccc1-2
- EC50 [4]: 63.2 µM (inactive)
- IC50 [5]: > 69.5 µM (not active)

SMILES: COc1ccc(C(=O)Nc2nc3c(s2)Cc2cc(OC)ccc2-3)cc1
- AC50 (Cytochrome P450 2C19): 5.01 µM (inconclusive)

SMILES: O=C1CCCC2=C1C1(O)C(=O)c3ccccc3C1(O)O2 (centres undefined)
- IC50 [6]: > 67 µM (not active)

SMILES: Nc1ccc2nc3c(O)nc(S)nc3nc2c1
- AC50 (ORF 73): 3.62 µM (active)
- IC50 (Genome polyprotein): > 49.8 µM (not active)
- IC50 [7]: 17 µM (active)
- AC50 (Keap1/Nrf2): 3.55 µM (active)
- IC50 [8]: 14 µM (active)

SMILES: CCN1/C(=C/c2ccc3cc(C)ccc3[n+]2CC)Sc2cc(C)c(C)cc21
- EC50 [9]: 9.66 µM (inconclusive)
